Reference: ChEMBL document CHEMBL1201862, “PubChem BioAssay data set” (2004)
Activity calls are given as the source filed them.

Key:
[1] = inhibitors of firefly luciferase expression or activity, dose response, H4 neuroglioma cells, luminescence (AID 1990); type: functional, cell-based
Estrogen receptor = biological target: T1, Estrogen receptor (Homo sapiens, UniProt P03372);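 note: potency for inhibiting coactivator peptide recruitment to the receptor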
T1 sequence (P03372 whole entry): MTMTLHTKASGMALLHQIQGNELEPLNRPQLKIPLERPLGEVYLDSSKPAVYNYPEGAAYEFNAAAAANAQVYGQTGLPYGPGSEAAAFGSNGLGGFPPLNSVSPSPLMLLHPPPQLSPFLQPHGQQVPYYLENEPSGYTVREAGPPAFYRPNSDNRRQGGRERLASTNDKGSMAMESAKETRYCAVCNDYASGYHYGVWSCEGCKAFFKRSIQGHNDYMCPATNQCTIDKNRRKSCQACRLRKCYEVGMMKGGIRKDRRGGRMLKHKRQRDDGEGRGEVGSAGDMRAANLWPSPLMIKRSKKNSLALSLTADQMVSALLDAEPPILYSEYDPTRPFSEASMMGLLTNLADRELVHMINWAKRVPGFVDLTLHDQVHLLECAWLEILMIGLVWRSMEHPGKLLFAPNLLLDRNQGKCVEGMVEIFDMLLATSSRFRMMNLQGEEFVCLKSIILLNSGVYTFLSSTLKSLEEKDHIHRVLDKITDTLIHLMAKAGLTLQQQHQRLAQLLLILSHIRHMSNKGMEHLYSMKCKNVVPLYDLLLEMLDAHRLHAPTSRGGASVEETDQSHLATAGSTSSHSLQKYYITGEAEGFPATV

[2] = inhibitors of SNCA 5'UTR-driven reporter translation, confirmation, H4 neuroglioma cells, luminescence (AID 1988); type: functional, cell-based
[3] = Luminescence Cell-Based Dose Response HTS to Identify Inhibitors of 5'UTR Stem-Loop Driven Prion Protein mRNA Translation in H4 Neuroglioblastoma Cells. [Related pubchem assays: 1827 (Project Summary), 1813 (Primary HTS)]; type: functional
[4] = P. falciparum late gametocyte killing, dose response, luminescence (AID 1117278); type: functional, cell-based;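 note: gametocytes exposed to compound for 24 hours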
[5] = biological target: T2, Histone-lysine N-methyltransferase NSD2 (Homo sapiens, UniProt O96028); type: biochemical
T2 sequence (O96028 whole entry): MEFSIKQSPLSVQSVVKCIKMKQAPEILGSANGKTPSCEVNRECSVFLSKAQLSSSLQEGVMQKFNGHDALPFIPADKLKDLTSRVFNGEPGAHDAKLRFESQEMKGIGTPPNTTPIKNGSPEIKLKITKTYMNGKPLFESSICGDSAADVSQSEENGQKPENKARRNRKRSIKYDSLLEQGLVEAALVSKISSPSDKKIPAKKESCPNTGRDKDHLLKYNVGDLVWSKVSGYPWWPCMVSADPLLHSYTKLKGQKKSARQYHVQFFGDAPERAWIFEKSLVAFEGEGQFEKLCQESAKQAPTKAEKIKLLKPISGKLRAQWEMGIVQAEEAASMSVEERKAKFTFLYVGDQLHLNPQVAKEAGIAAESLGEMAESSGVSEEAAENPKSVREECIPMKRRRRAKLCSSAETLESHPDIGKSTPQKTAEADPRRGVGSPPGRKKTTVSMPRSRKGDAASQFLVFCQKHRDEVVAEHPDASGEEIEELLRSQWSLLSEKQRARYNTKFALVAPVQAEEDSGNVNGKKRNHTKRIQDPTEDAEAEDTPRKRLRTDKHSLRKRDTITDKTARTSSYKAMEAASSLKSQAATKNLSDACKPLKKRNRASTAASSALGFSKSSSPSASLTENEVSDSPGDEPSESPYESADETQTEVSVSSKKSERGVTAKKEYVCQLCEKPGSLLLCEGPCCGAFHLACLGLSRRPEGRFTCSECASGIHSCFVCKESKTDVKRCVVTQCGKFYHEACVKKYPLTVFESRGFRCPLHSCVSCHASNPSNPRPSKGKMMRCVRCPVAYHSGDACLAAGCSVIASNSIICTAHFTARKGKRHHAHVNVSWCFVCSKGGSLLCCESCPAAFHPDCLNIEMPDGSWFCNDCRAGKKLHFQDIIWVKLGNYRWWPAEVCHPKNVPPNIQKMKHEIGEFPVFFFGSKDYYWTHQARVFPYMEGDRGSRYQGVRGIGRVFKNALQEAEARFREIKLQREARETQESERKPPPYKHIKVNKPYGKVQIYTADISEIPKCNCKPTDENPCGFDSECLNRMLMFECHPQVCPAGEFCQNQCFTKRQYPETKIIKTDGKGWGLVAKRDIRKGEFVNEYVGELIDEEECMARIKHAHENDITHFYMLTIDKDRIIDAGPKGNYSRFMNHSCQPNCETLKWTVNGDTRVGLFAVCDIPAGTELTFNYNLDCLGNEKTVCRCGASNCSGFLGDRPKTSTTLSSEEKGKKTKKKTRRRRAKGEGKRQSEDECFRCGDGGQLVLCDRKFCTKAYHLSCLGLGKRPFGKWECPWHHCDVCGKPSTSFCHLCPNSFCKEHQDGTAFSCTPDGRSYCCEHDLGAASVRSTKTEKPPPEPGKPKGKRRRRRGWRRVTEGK

[6] = Jurkat T cell cytotoxicity, dose response, cytotoxicity control for P. falciparum gametocyte viability project, luminescence (AID 1117277); type: functional, cell-based;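 note: potency reflects loss of cellular ATP meaning fewer viable cells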
[7] = biological target: Mitogen-activated protein kinase 10 (Homo sapiens, UniProt P53779); assay: Dose response biochemical screening assay for inhibitors of c-Jun N-Terminal Kinase 3 (JNK3). [Related pubchem assays: 746 ]
Estrogen receptor beta [8] = biological target: T3, Estrogen receptor beta (Homo sapiens, UniProt Q92731);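 note: recombinant ER-beta bound to coactivator SRC1 peptide in presence of estradiol agonist; inhibitors block coactivator peptide binding and lower the FRET signal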
Estrogen receptor beta [9] = biological target: T3, Estrogen receptor beta; assay: ERβ–SRC-3 coactivator interaction inhibitors, confirmation, orthogonal assay, biochemical, ELISA, streptavidin-HRP readout (AID 1060)
[10] = biological target: Voltage-dependent T-type calcium channel subunit alpha-1H (Homo sapiens, UniProt O95180); type: functional;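 note: channel activity triggered by adding a high calcium stimulation buffer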
[11] = biological target: Peroxisome proliferator-activated receptor gamma/Nuclear receptor coactivator 3 (Homo sapiens, UniProt P37231); assay: (§1) TR-FRET dose response biochemical High Throughput Screening assay for agonists of the steroid receptor coactivator 3 (SRC-3) recruitment by the peroxisome proliferator-activated receptor gamma (PPAR gamma): non-selective agonists. [Related pubchem assays: 1301 (Confirmation screen.), 1048 (Primary screen.)]; type: functional
[12] = biological target: Peroxisome proliferator-activated receptor gamma/Nuclear receptor coactivator 1 (Homo sapiens, UniProt P37231); assay: as §1, with “1 (SRC-1)” for “3 (SRC-3)”, “assays (depositor defined):AID1300, AID1808, AID504735, AID631]” for “assays: 1301 (Confirmation screen.), 1048 (Primary screen.)]”; type: protein assay
[13] = biological target: Peroxisome proliferator-activated receptor gamma/Nuclear receptor coactivator 2 (Homo sapiens, UniProt P37231); assay: TR-FRET dose response biochemical High Throughput Screening assay for agonists of the steroid receptor coactivator 2 (SRC-2) recruitment by the peroxisome proliferator-activated receptor gamma (PPAR gamma): non-selective agonists. [Related pubchem assays: 1297, 1032 ]; type: functional
[14] = biological target: T4, E3 ubiquitin-protein ligase XIAP (Homo sapiens, UniProt P98170); assay: Counter Screen using XIAP-Bir3 for Chemical Antagonists of Bir1/2 domains of IAP-family anti-apoptotic proteins. [Related pubchem assays (depositor defined):AID1018, AID1449, AID1514, AID1638, AID1749, AID1750, AID488957, AID488963]
[15] = biological target: T4, E3 ubiquitin-protein ligase XIAP; assay: XIAP antagonists, biochemical, IAP family, fluorescence polarization (AID 1018); type: functional
[16] = test system: Streptococcus sp. 'group A'; assay: growth inhibition of control SK(-) GAS strain, dose response, counter-screen for streptokinase expression inhibitor project, luminescence, kanamycin, BacTiterGlo, confirmation (AID 1900); type: functional, organism-based
[17] = HepG2 cell cytotoxicity, dose response, cytotoxicity control for non-replicating M. tuberculosis project (AID 489018); type: functional; settings: Mycobacterium tuberculosis
cells = type: functional
[18] = THP-1 cell cytotoxicity, dose response, cytotoxicity control for non-replicating M. tuberculosis project (AID 489025); type: functional
Streptococcus = assay: Group A Streptococcus viability loss, dose response, counter-screen for streptokinase expression inhibitor project, luminescence, BacTiterGlo (AID 1915); type: functional, organism-based;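 note: potency for reduction of bacterial viability or growth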
[19] = Vero E6 cell cytotoxicity, dose response, cytotoxicity control for non-replicating M. tuberculosis project, secondary assay (AID 492998); type: functional, VeroE6; settings: Vero C1008
Bcl-2-like protein 10 = biological target: T5, Bcl-2-like protein 10 (Homo sapiens, UniProt Q9HD36); assay: displacers of TR3 peptide from Bcl-B, primary screen, selectivity assay for Bfl-1 inhibitor project, biochemical, fluorescence polarization, FITC-TR3 peptide (AID 748);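 note: fluorescence polarization from a fluorescein-labelled TR3 peptide binding purified Bcl-B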
T5 sequence (Q9HD36 whole entry): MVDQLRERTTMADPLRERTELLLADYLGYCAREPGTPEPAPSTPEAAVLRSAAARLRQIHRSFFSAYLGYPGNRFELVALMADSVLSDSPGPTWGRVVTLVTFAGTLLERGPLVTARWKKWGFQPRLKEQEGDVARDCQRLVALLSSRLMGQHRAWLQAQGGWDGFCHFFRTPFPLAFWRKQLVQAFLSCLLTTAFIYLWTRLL

Trypsin = Trypsin (Sus scrofa, UniProt P00761); assay: porcine trypsin inhibitors, dose response, selectivity assay for Rce1 protease inhibitor project, biochemical, quenched peptide fluorescence, cherry-pick (AID 488789)
CAAX prenyl protease 2 = biological target: T6, CAAX prenyl protease 2 (Homo sapiens, UniProt Q9Y256); assay: human Rce1 protease inhibitors, dose response, biochemical, yeast membranes, quenched-peptide fluorescence, cherry-pick (AID 588849)
T6 sequence (Q9Y256 whole entry): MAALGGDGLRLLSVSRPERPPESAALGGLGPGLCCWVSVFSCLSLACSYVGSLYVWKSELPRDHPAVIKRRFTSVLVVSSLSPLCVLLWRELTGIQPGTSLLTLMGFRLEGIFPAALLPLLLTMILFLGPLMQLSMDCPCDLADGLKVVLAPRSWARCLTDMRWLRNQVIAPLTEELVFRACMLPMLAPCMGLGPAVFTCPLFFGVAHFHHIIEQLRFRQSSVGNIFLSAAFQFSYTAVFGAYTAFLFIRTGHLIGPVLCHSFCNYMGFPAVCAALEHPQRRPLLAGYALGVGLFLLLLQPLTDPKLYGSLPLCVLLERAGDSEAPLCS

Troponin, cardiac muscle = Troponin, cardiac muscle (Homo sapiens, UniProt P19429+P45379+P63316); assay: Fluorescence-based biochemical high throughput dose response assay for activators of the calcium sensitivity of cardiac Regulated Thin Filaments (RTF). [Related pubchem assays (depositor defined):AID493008, AID493018, AID504382, AID504383]; type: protein-complex assay

T4 sequence (P98170 whole entry): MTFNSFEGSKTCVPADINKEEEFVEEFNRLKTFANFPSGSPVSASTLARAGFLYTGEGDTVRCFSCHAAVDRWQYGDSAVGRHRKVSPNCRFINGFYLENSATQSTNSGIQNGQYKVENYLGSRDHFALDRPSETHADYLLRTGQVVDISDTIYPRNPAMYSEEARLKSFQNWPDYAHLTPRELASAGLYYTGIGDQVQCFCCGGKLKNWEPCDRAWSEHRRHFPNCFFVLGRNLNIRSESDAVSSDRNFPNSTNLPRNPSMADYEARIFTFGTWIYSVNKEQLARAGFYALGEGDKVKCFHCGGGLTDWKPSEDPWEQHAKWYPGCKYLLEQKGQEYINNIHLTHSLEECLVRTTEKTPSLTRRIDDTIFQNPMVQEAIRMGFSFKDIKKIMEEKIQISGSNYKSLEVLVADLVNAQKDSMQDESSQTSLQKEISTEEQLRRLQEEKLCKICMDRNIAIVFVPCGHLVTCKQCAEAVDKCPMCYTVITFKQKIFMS
T3 sequence (Q92731 whole entry): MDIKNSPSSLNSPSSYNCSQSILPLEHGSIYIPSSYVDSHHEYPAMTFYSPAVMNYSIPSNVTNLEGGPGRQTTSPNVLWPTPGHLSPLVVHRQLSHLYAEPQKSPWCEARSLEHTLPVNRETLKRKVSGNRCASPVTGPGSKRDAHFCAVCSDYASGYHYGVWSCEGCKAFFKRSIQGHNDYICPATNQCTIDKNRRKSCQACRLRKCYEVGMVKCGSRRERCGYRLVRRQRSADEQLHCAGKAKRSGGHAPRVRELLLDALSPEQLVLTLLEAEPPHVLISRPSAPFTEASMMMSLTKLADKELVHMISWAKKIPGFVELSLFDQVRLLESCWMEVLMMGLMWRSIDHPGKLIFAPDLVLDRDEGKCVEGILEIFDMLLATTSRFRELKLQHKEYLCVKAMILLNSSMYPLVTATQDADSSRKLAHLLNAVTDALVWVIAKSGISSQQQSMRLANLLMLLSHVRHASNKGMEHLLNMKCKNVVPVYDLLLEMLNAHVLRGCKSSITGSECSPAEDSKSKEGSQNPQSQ
Sequence of Mitogen-activated protein kinase 10 (P53779 whole entry): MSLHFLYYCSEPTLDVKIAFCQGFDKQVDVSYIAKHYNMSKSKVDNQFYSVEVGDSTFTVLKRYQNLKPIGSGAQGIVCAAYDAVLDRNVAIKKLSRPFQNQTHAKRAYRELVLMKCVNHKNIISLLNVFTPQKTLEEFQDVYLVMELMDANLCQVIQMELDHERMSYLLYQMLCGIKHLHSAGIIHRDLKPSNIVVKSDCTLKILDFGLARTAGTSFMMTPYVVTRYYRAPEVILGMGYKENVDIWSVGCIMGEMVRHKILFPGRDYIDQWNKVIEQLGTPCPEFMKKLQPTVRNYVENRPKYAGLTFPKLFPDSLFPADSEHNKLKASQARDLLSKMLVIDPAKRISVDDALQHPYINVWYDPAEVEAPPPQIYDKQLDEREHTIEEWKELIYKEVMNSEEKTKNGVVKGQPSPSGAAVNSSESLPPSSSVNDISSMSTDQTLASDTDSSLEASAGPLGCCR
Sequence of Voltage-dependent T-type calcium channel subunit alpha-1H (O95180 whole entry): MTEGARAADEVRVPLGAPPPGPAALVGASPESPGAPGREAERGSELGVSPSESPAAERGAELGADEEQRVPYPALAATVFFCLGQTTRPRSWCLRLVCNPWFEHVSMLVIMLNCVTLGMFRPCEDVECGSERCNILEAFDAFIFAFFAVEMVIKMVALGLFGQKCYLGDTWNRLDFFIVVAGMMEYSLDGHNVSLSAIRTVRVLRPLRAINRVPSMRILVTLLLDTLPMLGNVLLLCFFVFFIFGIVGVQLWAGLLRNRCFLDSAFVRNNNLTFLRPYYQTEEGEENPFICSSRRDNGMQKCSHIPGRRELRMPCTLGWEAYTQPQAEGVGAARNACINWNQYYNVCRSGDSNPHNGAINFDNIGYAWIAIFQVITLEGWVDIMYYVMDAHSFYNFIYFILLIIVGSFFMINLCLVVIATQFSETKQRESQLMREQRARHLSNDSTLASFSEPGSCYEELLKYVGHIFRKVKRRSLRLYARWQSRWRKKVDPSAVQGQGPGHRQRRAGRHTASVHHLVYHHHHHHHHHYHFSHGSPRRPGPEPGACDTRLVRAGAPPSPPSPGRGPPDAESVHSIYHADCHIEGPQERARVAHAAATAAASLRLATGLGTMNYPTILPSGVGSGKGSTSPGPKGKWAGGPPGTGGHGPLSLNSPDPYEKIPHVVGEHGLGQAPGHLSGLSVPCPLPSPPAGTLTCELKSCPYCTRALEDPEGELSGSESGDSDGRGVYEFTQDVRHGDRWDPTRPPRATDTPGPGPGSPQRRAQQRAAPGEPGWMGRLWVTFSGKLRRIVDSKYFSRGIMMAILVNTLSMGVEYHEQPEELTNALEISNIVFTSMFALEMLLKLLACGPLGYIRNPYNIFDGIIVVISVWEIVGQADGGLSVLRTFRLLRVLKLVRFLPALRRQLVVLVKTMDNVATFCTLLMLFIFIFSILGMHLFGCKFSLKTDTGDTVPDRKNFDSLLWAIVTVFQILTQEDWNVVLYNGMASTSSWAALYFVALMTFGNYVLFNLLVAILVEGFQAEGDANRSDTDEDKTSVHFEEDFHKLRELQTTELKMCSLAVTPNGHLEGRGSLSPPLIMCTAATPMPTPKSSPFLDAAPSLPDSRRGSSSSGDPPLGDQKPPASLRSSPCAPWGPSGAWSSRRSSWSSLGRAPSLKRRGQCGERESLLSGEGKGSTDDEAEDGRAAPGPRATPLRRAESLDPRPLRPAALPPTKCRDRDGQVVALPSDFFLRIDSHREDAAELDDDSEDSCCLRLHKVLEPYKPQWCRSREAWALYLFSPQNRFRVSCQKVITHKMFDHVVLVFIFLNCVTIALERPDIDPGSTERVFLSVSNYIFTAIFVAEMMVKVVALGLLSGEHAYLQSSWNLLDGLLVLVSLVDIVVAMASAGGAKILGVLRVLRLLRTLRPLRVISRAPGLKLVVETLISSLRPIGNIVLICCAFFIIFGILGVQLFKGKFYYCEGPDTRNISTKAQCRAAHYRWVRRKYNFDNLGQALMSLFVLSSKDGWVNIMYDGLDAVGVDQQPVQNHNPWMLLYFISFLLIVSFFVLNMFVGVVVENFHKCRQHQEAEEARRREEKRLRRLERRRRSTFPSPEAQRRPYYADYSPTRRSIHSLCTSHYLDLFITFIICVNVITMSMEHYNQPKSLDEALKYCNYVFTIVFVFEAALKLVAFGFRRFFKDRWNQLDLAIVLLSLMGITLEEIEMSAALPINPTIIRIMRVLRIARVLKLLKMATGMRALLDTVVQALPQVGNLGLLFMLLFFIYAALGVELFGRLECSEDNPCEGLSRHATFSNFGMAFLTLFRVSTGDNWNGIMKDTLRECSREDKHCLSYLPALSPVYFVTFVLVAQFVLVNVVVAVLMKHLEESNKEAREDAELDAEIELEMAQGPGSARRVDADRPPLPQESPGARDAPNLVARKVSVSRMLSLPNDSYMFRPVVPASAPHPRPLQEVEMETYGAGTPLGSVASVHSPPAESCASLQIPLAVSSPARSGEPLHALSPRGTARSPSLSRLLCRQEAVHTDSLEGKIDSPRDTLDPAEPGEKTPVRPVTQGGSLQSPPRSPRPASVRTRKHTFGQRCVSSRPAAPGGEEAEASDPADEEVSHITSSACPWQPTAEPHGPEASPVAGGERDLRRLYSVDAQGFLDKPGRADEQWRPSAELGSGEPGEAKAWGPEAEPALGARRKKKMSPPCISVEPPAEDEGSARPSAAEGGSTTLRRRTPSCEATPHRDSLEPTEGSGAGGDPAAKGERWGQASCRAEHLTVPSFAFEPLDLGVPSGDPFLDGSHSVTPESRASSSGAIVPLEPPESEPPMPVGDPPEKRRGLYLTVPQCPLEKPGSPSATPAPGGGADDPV
Sequence of Trypsin (P00761 whole entry): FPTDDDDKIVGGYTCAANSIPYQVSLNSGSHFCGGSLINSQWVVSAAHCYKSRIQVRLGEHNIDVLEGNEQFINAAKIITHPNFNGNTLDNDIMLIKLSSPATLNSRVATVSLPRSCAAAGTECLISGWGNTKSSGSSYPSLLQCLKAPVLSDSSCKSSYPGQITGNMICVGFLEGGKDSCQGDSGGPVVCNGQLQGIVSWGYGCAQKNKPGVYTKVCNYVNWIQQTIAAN

## COc1ccc(Cn2c(=O)[nH]c3cc(C(=O)NCc4ccc5c(c4)OCO5)ccc3c2=O)cc1
[1]
  EC50: > 120 µM (not active)
Estrogen receptor
  IC50: 18.9 µM (active)
[2]
  EC50: 11 µM (active)
[3]
  EC50: > 120 µM (not active)

## CCCCCNc1nc(NCCCO)c(C#N)c2c1CN(C)CC2
[4]
  IC50: > 109 µM (inactive)
[5]
  AC50: > 20 µM (inactive)
[6]
  IC50: > 83.3 µM (inactive)

## CCOC(=O)CSc1nc2c(sc3ccccc32)c(=O)n1CCCN1CCOCC1
[7]
  IC50: 40 µM (not active)

## CSC1=N/C(=C\c2ccc(Br)o2)C(=O)S1
Estrogen receptor
  IC50: 22.1 µM (active)
Estrogen receptor beta [8]
  IC50: 8.58 µM (active)
Estrogen receptor beta [9]
  IC50: < 0.023 µM (not active)

## Cc1ccc(-c2noc(CSc3nnc(Cc4cccs4)n3-c3ccccc3)n2)cc1
[10]
  EC50: 3.56 µM (active)

## CCn1c(=O)cc(SCC(=O)N2CCN(c3ccccc3F)CC2)c2ccccc21
[11]
  EC50: > 79.4 µM (not active)
[12]
  EC50: > 79.4 µM (inactive)
[13]
  EC50: > 79.4 µM (not active)

## Cc1cc(=O)oc2cc(OCc3ccc(C(=O)N4CCN(c5ccc([N+](=O)[O-])cc5)CC4)cc3)ccc12
[14]
  IC50: > 100 µM (inactive)
[15]
  IC50: > 100 µM (not active)

## COC(=O)c1c(NC(=O)Cc2cccs2)sc(C)c1C
[7]
  IC50: 34.8 µM (not active)

## CCOc1ccc(-c2nnc(NC(=O)c3ccc(OCC(C)C)c(OC)c3)o2)cc1
[16]
  EC50: 0.354 µM (active)
[17]
  CC50: > 20 µM (active)
[10]
  EC50: 11.3 µM (active)
cells
  IC50: 36.7 µM (active)
[18]
  CC50: 13.8 µM (active)
Streptococcus
  EC50: 1.76 µM (active)
[19]
  CC50: 10.1 µM (active)

## COC(=O)c1sc(-c2ccccc2)cc1NC(=O)C1CC1
[11]
  EC50: > 79.4 µM (not active)
[12]
  EC50: > 79.4 µM (inactive)
[13]
  EC50: > 79.4 µM (not active)

## Cc1ccc(S(=O)(=O)NC(=O)c2cc(C)n(CCCn3ccnc3)c2C)cc1
Bcl-2-like protein 10
  IC50: 74 µM (inactive)

## CC1CCN(c2oc(-c3ccc(F)cc3)nc2C#N)CC1
Trypsin
  AC50: 3.18 µM (active)
CAAX prenyl protease 2
  AC50: 9.46 µM (active)

## CC(C)CN(C(=O)COC(=O)c1cc2c(s1)CCC2)C1CCS(=O)(=O)C1 (stereo not given)
Estrogen receptor
  IC50: 2.95 µM (active)
Estrogen receptor beta [8]
  IC50: 1.91 µM (active)
Bcl-2-like protein 10
  IC50: 26.6 µM (active)
Estrogen receptor beta [9]
  IC50: 1.94 µM (not active)

## Cc1ccc(NC(=O)CN2C(=O)S/C(=C\C(=O)Nc3ccc(Cl)cc3)C2=O)cc1
[14]
  IC50: > 100 µM (inactive)
[15]
  IC50: > 100 µM (not active)

## O=c1[nH]c(=S)c2c(n1-c1ccccc1)CCC2
[7]
  IC50: 76 µM (not active)

## CCCN(CCC)S(=O)(=O)c1ccc(NS(=O)(=O)c2ccc(F)cc2)cc1
[10]
  EC50: 3.07 µM (active)

## CCN(CC(=O)Nc1ccccc1C(F)(F)F)C(=O)c1ccc(-n2nc(C)c(CCC(=O)OC)c2C)cc1
Troponin, cardiac muscle
  EC50: > 71.5 µM (inactive)
